The test system of one test is S. turgidiscabies. As to the kind of experiment: Bacterial growth of S. turgidiscabies cultures (dry weight of mycelia). Particulars: FIG. 4C. The class given is cell-based, Streptomyces turgidiscabies. As to the method: (§1) Sonicated cell lysates from 3 mL cultures were run on 12% SDS-PAGE gels after 2.5 hr induction with 0.1 mM IPTG. […] The NOS intermediate N^ω-hydroxy-L-arginine (2 mM) and hydrogen peroxide (4 mM) were reacted with 20 μL of cell lysates shown in FIG. 4A and assayed for nitrite with the Griess reagents after 15 min.
(§2) Streptomyces turgidiscabies cultures were grown in oat bran broth or oat meal broth (Healy et al., Mol. Micro. 38:794–804 (2000); and Goyer et al., Phytopathology 88:442–445 (1998), which are hereby incorporated by reference in their entirety) inoculated with spores. After shaking at 150 rpm and 25° C. for 5–9 days the cultures were filtered and dry weight of the mycelia was measured. Thaxtomin was extracted from the filtrate with ethyl acetate, dried, redissolved in methanol, and quantified using HPLC (column: 5 μm C18; 250×4.6 mm; mobile phase: MeCN: H20:TFA (40:60:0.1)). In experiments investigating the suppression of thaxtomin production in the presence of L-NAME, this NOS inhibitor was dissolved in water, filter-sterilized, and added at the time of inoculation.

Test [1] concerns thaxtomin A production by S. turgidiscabies. As to the kind of experiment: Thaxtomin A production by S. turgidiscabies cultures in presence of NOS inhibitors (HPLC). In kind it is cell-based, Streptomyces turgidiscabies. The conditions noted are these: FIG. 4C, n=6. As to the method:
as §1, §2
For stNOS to be responsible for thaxtomin nitration, stNOS should have NO synthase activity. Further, this activity and thaxtomin production should be arginine dependent. As predicted, overexpressed stNOS in E. coli produced nitrite from N-hydroxy-L-arginine in a standard NOS assay (FIGS. 4A–4B). N-hydroxy-L-arginine is an intermediate unique to the NOS catalytic reaction and nitrite represents the end product of NO reacting in oxygenated solution. NO synthase activity of the recombinant stNOS was inhibited by the selective NOS inhibitor nitro-L-arginine (FIG. 4B); nitro-L-arginine is the active form of Nitro-L-arginine methyl ester (NAME). NOS inhibitors were also evaluated for their effect on thaxtomin A production by S. turgidiscabies. […]

In the case of `CNC(=N)NCCC[C@H](N)C(=O)O` [NMMA, NG-monomethyl-L-arginine], the bacterial growth entry in the test on S. turgidiscabies (510 μM) is reported as “without affecting bacterial growth”. For the same compound, the toxin production result in test [1] (510 μM) is reported as “inhibit toxin product”.

Regarding `N=C(N)NN` [AG, aminoguanidine], the bacterial growth result with S. turgidiscabies (270 μM) is “without affecting bacterial growth”. Also, in test [1] (270 μM), the toxin production entry was “inhibit toxin product”.

Regarding `O=[N+]([O-])c1cccc2cn[nH]c12` [7-IN, 7-nitroindazole], the bacterial growth entry with S. turgidiscabies (1.2 μM) is “without affecting bacterial growth”. The toxin production result in test [1] (1.2 μM) is “inhibit toxin product”.

The values are drawn from patent US7208303B2, “Bacterial nitric oxide synthases and uses thereof” (Cornell Research Foundation, Inc., priority 2003, dated 2007).
